Data reported in patent US10519504B2, “Methods for treatment of oncological disorders using epimetabolic shifters, multidimensional intracellular molecules, or environmental influencers” (Berg LLC, priority 2009, dated 2019).
Like-named read-outs stand apart in the source and are kept apart here.

How the values were obtained:
[1] = test system: Pancreatic Cancer Cells (PaCa2); assay: Real-time PCR Apoptosis Array; assay type: cell-based
Method: Experiments were carried out essentially as described above.

[2] = test system: induced pancreatic cancer; conditions: for survival after 28 days: intravenous
[3] = test system: HepG2 (liver cancer) cells; assay: Real-time PCR Diabetes Array; assay type: cell-based; conditions: 100 μM Q10
Method: The treatment was initiated on 1×10^5 cells per well, following the procedure utilized in the PaCa2 cells (above, Examples 9-11). However, the total amount of RNA that was extracted from these samples was lower than expected. Reverse transcription is normally done using 1 μg of total RNA (determined by measurement at 260 nm). The maximum volume that can be used per reverse transcription is 8 μl.

[4] = test system: Pyruvate Kinase M2 (PKM2); assay: Western blot, Pyruvate Kinase M2 levels; assay type: cell-based, human; conditions: cancer cells tested
Method: The samples were processed and run on a 4-12% Bis-Tris Novex NuPAGE gel as described above. The gels were run, transferred and stained essentially as described above.
The lactate dehydrogenase blots were stripped by incubating for 30 minutes with methanol, followed by two 10 minute washes with TBS-T, then 30 minutes of incubation with Stripping buffer at 50 deg C., and followed by two washes with 100 ml or more of TBS-T for 30′ each. The 2 blots were scanned in laser scanner to check for complete stripping. The blots were activated with methanol for 5 seconds, washed with water for 5 minutes, and TBST for 15 minutes. The blots were blocked for 1 hour with 5% blocking reagent in TBS-T at room temperature and then washed 3 times with TBS-T (1X−15′; 2X5′ each) and probed with the rabbit polyclonal antibody for Pyruvate Kinase M2 in 5% BSA (NOVUS BIOLOGICALS catalog #H00005315-D01P) at 1:500 dilution overnight at 4 deg C. with shaking. After the overnight incubation with primary antibody for Pyruvate Kinase M2, the membranes were washed 3 times with TBS-T (1X−15′; 2X5′ each) and probed with the secondary antibody (antirabbit; 1:10,000 dilution) for 1 h on the orbital tilting shaker at room temperature. […]

SCC cells = assay: Real-time PCR Heat Shock Protein Array; assay type: cell-based
Source text: The control cells were untreated cells.
Heat Shock Arrays were run for SCC cells and the data of regulated genes is summarized below in Table 13.

[5] = 100 μM Q10, Down regulated at 6 hours

COC1=C(OC)C(=O)C(C/C=C(\C)CC/C=C(\C)CC/C=C(\C)CC/C=C(\C)CC/C=C(\C)CC/C=C(\C)CC/C=C(\C)CC/C=C(\C)CC/C=C(\C)CCC=C(C)C)=C(C)C1=O [Q10, Coenzyme Q10]
apoptosis array genes (ABL1, AKT1, Bcl2L1 ... TNFSF10 as listed) ([1]; 100 uM Q10): modulated by Q10 treatment | genes from the apoptosis array whose expression is regulated ([1]; 100 μM Q10, genes: CASP1, CASP6, TNF, TNFSF10, ABL1, AKT1, BclAF1, Bcl2L1, CASP2, CIDEA, FADD, LTA, TNFSF10A): A list of genes from the apoptosis array whose expression is regulated | dose response of survival ([2]; 5 to 50 mg/kg): those animals receiving higher doses had a higher survival rate | survival after 28 days ([2]; Group G: 50 mg/kg): all of the animals receiving the highest dose of coenzyme Q10 (Group G) remained alive at 28 days | survival after 28 days ([2]; Groups D, E, F: 5, 10, 25 mg/kg): most of the animals in Groups D, E and F remained alive | PPARGC1A regulation ([3]; HepG2, 48 hours): normalized or were slightly upregulated | PRKAA1 regulation ([3]; HepG2, 48 hours): normalized or were slightly upregulated | genes regulated in the Diabetes Arrays ([3]; HepG2 cells, genes: PPARGC1A, PRKAA1, SNAP25): List of genes regulated in the Diabetes Arrays when HepG2 cells | PKM2 expression [4]: dose-dependent decrease in the PKM2 expression | DNAJB5 Regulation (SCC cells; [5]): Down | DNAJB13 Regulation (SCC cells; [5]): Down | DNAJC4 Regulation (SCC cells; [5]): Down | DNAJC5B Regulation (SCC cells; [5]): Down | DNAJC12 Regulation (SCC cells; [5]): Down | CCT6B Regulation (SCC cells; 100 μM Q10, Down regulated at 24 hours): Down | DNAJA1 Regulation (SCC cells; 100 μM Q10, at 6 hours): Up regulated | HSPA8 Regulation (SCC cells; 100 μM Q10, at 6 hours): Up regulated | HSPH1 Regulation (SCC cells; 100 μM Q10, at 6 hours): Up regulated
